9 molecules from PubChem BioAssay (NCI) can be followed below.

Test systems include A549 NSCLC; K-562 leukemia; BT-549 breast; SF-268 CNS; MDA-MB-435; UO-31 renal; U251 CNS; M14 melanoma; HCC-2998 colon; CCRF-CEM leukemia; OVCAR-4 ovarian; T-47D breast; SN12C renal; UACC-257 melanoma; SK-MEL-28 melanoma; SK-OV-3 ovarian; HCT-116 colon; NCI-H226 lung; SF-539 CNS; SW-620 colon.
Assay in all cases: DTP human tumour cell line panel, 48 h

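Cultured in 96-well plates, cells were exposed to test compound for 48 hours across five concentrations. TGI denotes the concentration required for complete inhibition of growth.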

For orientation: TGI means the concentration giving total growth inhibition. Lower therefore signals more potent growth arrest. Consider `CCOC(=O)NN(C(=O)OCC)C(C(=O)c1ccccc1)N(NC(=O)OCC)C(=O)OCC`, for which the TGI in the assay on A549 NSCLC, with K-562 leukemia, in the assay with BT-549 breast, with SF-268 CNS, with MDA-MB-435 and in the assay with UO-31 renal was above 100 µM each time. Further, the TGI in the assay on U251 CNS, in the assay on M14 melanoma, with HCC-2998 colon, in the assay with CCRF-CEM leukemia, in the assay on OVCAR-4 ovarian and with T-47D breast was above 100 µM each time. The TGI with SN12C renal, in the assay on UACC-257 melanoma, with SK-MEL-28 melanoma, in the assay on SK-OV-3 ovarian, with HCT-116 colon and with NCI-H226 lung was above 100 µM throughout. For the same molecule, the TGI in the assay with SF-539 CNS and with SW-620 colon was above 100 µM in each case.
For the molecule `COc1cc(/C=C/C(=N\NC(N)=S)c2sc(NNC(C)=O)nc2C)ccc1O`, the TGI in the assay on A549 NSCLC, in the assay with K-562 leukemia, in the assay with BT-549 breast, in the assay on SF-268 CNS, with MDA-MB-435 and in the assay with UO-31 renal was above 100 µM throughout. The TGI in the assay on U251 CNS, in the assay with M14 melanoma, with HCC-2998 colon, in the assay on CCRF-CEM leukemia, in the assay on OVCAR-4 ovarian and in the assay on T-47D breast was above 100 µM in each case. The TGI with SN12C renal, with UACC-257 melanoma, in the assay on SK-MEL-28 melanoma, in the assay on SK-OV-3 ovarian, with HCT-116 colon and in the assay on NCI-H226 lung was above 100 µM in each case. The TGI in the assay with SF-539 CNS and in the assay with SW-620 colon was above 100 µM throughout.
With `COC(=O)c1ccccc1C1CN=NC12Cc1ccc3c(c1C2=O)CCC3` (stereo not given), the TGI with A549 NSCLC, with K-562 leukemia, in the assay on BT-549 breast, with SF-268 CNS, with MDA-MB-435 and in the assay on UO-31 renal was above 100 µM throughout. Further, the TGI in the assay on U251 CNS, in the assay with M14 melanoma, in the assay on HCC-2998 colon, in the assay with CCRF-CEM leukemia, with OVCAR-4 ovarian and in the assay on T-47D breast was above 100 µM each time. Also, the TGI in the assay with SN12C renal, with UACC-257 melanoma, in the assay with SK-MEL-28 melanoma, in the assay on SK-OV-3 ovarian, in the assay with HCT-116 colon and in the assay on NCI-H226 lung was above 100 µM throughout. The TGI with SF-539 CNS and in the assay on SW-620 colon was above 100 µM each time.
As for `CSc1ccc2c(c1)c(CCN)c(C)n2Cc1ccccc1Cl`, the TGI in the assay on A549 NSCLC worked out at 3.18 µM; in the assay on K-562 leukemia, 2.83 µM; in the assay on BT-549 breast, 33.5 µM; with SF-268 CNS, 3.4 µM; in the assay on MDA-MB-435, 3.08 µM; with UO-31 renal, 2.96 µM. The TGI with U251 CNS was 3.06 µM; with M14 melanoma it was 3.32 µM; with HCC-2998 colon, 2.04 µM; in the assay on CCRF-CEM leukemia it was 3.89 µM; in the assay with OVCAR-4 ovarian, 3.29 µM; with T-47D breast, 3.09 µM. For the same molecule, the TGI was 3.06 µM with SN12C renal; 3.29 µM in the assay with UACC-257 melanoma; 3.22 µM in the assay with SK-MEL-28 melanoma; 4.28 µM in the assay on SK-OV-3 ovarian; 3.07 µM in the assay with HCT-116 colon; 4.1 µM in the assay with NCI-H226 lung. Besides, the TGI stood at 2.26 µM in the assay on SF-539 CNS and 3.89 µM with SW-620 colon.
Consider `CN(C)CC1CCC/C(=C\c2ccc(OC(=O)/C=C/c3ccc(Cl)cc3)cc2)C1=O` (stereo not given), for which the TGI in the assay on A549 NSCLC came out at 21.6 µM; with K-562 leukemia, 4.04 µM; with BT-549 breast, 14.2 µM; in the assay on SF-268 CNS it was 12.4 µM; with MDA-MB-435, 21.1 µM; in the assay with UO-31 renal, 12.8 µM. The TGI amounted to 9.97 µM in the assay with U251 CNS; 20 µM in the assay with M14 melanoma; 13.1 µM with HCC-2998 colon; 3.39 µM with CCRF-CEM leukemia; 35.9 µM in the assay on OVCAR-4 ovarian; 4.64 µM in the assay with T-47D breast. In addition, the TGI was 12.8 µM in the assay on SN12C renal; 32.6 µM in the assay on UACC-257 melanoma; 14.7 µM in the assay on SK-MEL-28 melanoma; 50 µM in the assay with SK-OV-3 ovarian; 11 µM in the assay with HCT-116 colon; 20.2 µM with NCI-H226 lung. In addition, the TGI in the assay on SF-539 CNS was 5.79 µM; in the assay with SW-620 colon it was 6.44 µM.
As to `Cc1ccnc(Nc2[nH]c(C(=O)c3ccc(Cl)cc3)c(N)c2C(=S)Nc2ccccc2)c1`, the TGI in the assay on A549 NSCLC turned out to be 53 µM; in the assay on K-562 leukemia it was 52.4 µM; with BT-549 breast it was 30.5 µM; in the assay with SF-268 CNS, 59.8 µM; with MDA-MB-435 it was 35.3 µM; in the assay with UO-31 renal, 37.2 µM. For the same molecule, the TGI with U251 CNS was 33.2 µM; with M14 melanoma, 31.9 µM; in the assay on HCC-2998 colon, 29.7 µM; with CCRF-CEM leukemia it was above 100 µM; with OVCAR-4 ovarian, 29.4 µM; with T-47D breast, above 100 µM. For the same molecule, the TGI in the assay with SN12C renal worked out at 31 µM; in the assay with UACC-257 melanoma, 32.7 µM; in the assay with SK-MEL-28 melanoma, 35.9 µM; in the assay with SK-OV-3 ovarian, 35 µM; in the assay with HCT-116 colon, 30 µM; with NCI-H226 lung, 45.6 µM. Also, the TGI was determined as 26.6 µM in the assay on SF-539 CNS and 69.6 µM in the assay with SW-620 colon.
As for `Cc1cc(C)n(-c2nc(C)c(CCO)c(=O)[nH]2)n1`, the TGI in the assay on A549 NSCLC, with K-562 leukemia, with BT-549 breast, in the assay on SF-268 CNS, with MDA-MB-435 and with UO-31 renal was above 100 µM throughout. For the same molecule, the TGI in the assay with U251 CNS, in the assay on M14 melanoma, with HCC-2998 colon, in the assay with CCRF-CEM leukemia, in the assay on OVCAR-4 ovarian and in the assay with T-47D breast was above 100 µM in each case. Further, the TGI in the assay on SN12C renal, in the assay with UACC-257 melanoma, in the assay with SK-MEL-28 melanoma, with SK-OV-3 ovarian, in the assay with HCT-116 colon and in the assay with NCI-H226 lung was above 100 µM in each case. The TGI with SF-539 CNS and with SW-620 colon was above 100 µM in each case.
Turning to `COc1ccc2c(c1)/c(=C/C#N)c1c3ccccc3[n+](C)n21`, the TGI was 16.2 µM in the assay on A549 NSCLC; above 69.8 µM in the assay on K-562 leukemia; 26.1 µM with BT-549 breast; 30.5 µM with SF-268 CNS; 19.3 µM in the assay with MDA-MB-435; 36.9 µM with UO-31 renal. In addition, the TGI with U251 CNS was determined as 40.8 µM; in the assay with M14 melanoma, 32.4 µM; in the assay with HCC-2998 colon, 6.83 µM; in the assay with CCRF-CEM leukemia, 13.1 µM; in the assay on OVCAR-4 ovarian it was 22.9 µM; in the assay with T-47D breast, 10.6 µM. The TGI with SN12C renal is 47.4 µM; with UACC-257 melanoma it was 19.3 µM; in the assay on SK-MEL-28 melanoma it was 14.3 µM; with SK-OV-3 ovarian, above 100 µM; in the assay with HCT-116 colon, 12.5 µM; in the assay on NCI-H226 lung, 21.4 µM. Besides, the TGI in the assay on SF-539 CNS is 11.8 µM; in the assay on SW-620 colon, above 39.2 µM.
For the molecule `O=C(NC1=C(Cl)C(=O)c2ccccc2C1=O)C(=O)C(C(=O)c1ccc2ccccc2c1)C1OC(=O)c2ccccc21` (stereo not given), the TGI with A549 NSCLC stood at 17.5 µM; in the assay on K-562 leukemia it was 25.6 µM; with BT-549 breast, 17.3 µM; in the assay with SF-268 CNS it was 29.6 µM; with MDA-MB-435, 3.33 µM; in the assay on UO-31 renal, 29.4 µM. Moreover, the TGI in the assay on U251 CNS stood at 18.5 µM; with M14 melanoma it was 18.2 µM; with HCC-2998 colon it was 22.7 µM; in the assay on CCRF-CEM leukemia, 26.9 µM; in the assay on OVCAR-4 ovarian, 19.8 µM; in the assay on T-47D breast, 29.3 µM. Also, the TGI is 16.3 µM in the assay with SN12C renal; 5.48 µM with UACC-257 melanoma; 14.5 µM in the assay with SK-MEL-28 melanoma; 44 µM in the assay with SK-OV-3 ovarian; 10.5 µM in the assay with HCT-116 colon; 7.09 µM with NCI-H226 lung. Further, the total growth inhibition concentration (TGI) in the assay with SF-539 CNS was 9.66 µM; in the assay on SW-620 colon, 28.2 µM.
